# In patent US4639433A, “Glycopeptide derivatives” (Eli Lilly and Company, priority 1985, dated 1987):
# Legend:
# Details in all cases: agar dilution
# [1] = tested on: Staphylococcus aureus NRRL B313
# [2] = tested on: Staphylococcus aureus V41
# [3] = tested on: Staphylococcus aureus X400
# [4] = tested on: Staphylococcus aureus S13E
# [5] = tested on: Staphylococcus epidermidis EPI1
# [6] = tested on: Staphylococcus epidermidis 222
# [7] = tested on: Streptococcus pyogenes C203
# [8] = tested on: Streptococcus pneumoniae Park 1
# [9] = tested on: Streptococcus faecium ATCC 9790
# [10] = tested on: Streptococcus sp. group D 2041
# [11] = tested on: Haemophilus influenzae C.L.
# [12] = tested on: Haemophilus influenzae 76
# Escherichia coli N10 = tested on: Escherichia coli N10
# Escherichia coli EC14 = tested on: Escherichia coli EC14
# Escherichia coli TEM = tested on: Escherichia coli TEM
# [13] = tested on: Klebsiella pneumoniae X26
# [14] = tested on: Klebsiella pneumoniae X68
# [15] = tested on: Klebsiella pneumoniae KAE
SMILES,MIC [1] [µg/mL],MIC [2] [µg/mL],MIC [3] [µg/mL],MIC [4] [µg/mL],MIC [5],MIC [6] [µg/mL],MIC [7] [µg/mL],MIC [8] [µg/mL],MIC [9] [µg/mL],MIC [10] [µg/mL],MIC [11],MIC [12],MIC (Escherichia coli N10),MIC (Escherichia coli EC14),MIC (Escherichia coli TEM),MIC [13],MIC [14],MIC [15]
"CNC(CC(C)C)C(=O)NC1C(=O)NC(CC(N)=O)C(=O)NC2C(=O)NC3C(=O)NC(C(=O)NC(C(=O)O)c4cc(O)cc(O)c4-c4cc3ccc4O)C(O)c3ccc(c(Cl)c3)Oc3cc2cc(c3OC2OC(CO)C(O)C(O)C2OC2CC(C)(NC(=O)C(NC(=O)OCc3ccccc3)C(C)C)C(O)C(C)O2)Oc2ccc(cc2Cl)C1O (stereo not drawn) [Compound 32, N^van-[2-(N--Cbz--amino)-1-oxo-isopentyl]vancomycin]",4,4,8,4,32 µg/mL,8,2,2,4,8,128 µg/mL,128 µg/mL,-- (not active at 128 mcg/ml),-- (not active at 128 mcg/ml),-- (not active at 128 mcg/ml),-- (not active at 128 mcg/ml),-- (not active at 128 mcg/ml),-- (not active at 128 mcg/ml)
"CNC(CC(C)C)C(=O)NC1C(=O)NC(CC(N)=O)C(=O)NC2C(=O)NC3C(=O)NC(C(=O)NC(C(=O)O)c4cc(O)cc(O)c4-c4cc3ccc4O)C(O)c3ccc(c(Cl)c3)Oc3cc2cc(c3OC2OC(CO)C(O)C(O)C2OC2CC(C)(NC(=O)CC(C)C)C(O)C(C)O2)Oc2ccc(cc2Cl)C1O (stereo not drawn) [Compound 34, N^van --(1-oxo-isopentyl)vancomycin]",2,2,2,2,8 µg/mL,4,1,1,2,8,-- (not active at 128 mcg/ml),-- (not active at 128 mcg/ml),-- (not active at 128 mcg/ml),-- (not active at 128 mcg/ml),-- (not active at 128 mcg/ml),-- (not active at 128 mcg/ml),-- (not active at 128 mcg/ml),-- (not active at 128 mcg/ml)
"C=CCCCCCCCCC(=O)N(C)C(CC(C)C)C(=O)NC1C(=O)NC(CC(N)=O)C(=O)NC2C(=O)NC3C(=O)NC(C(=O)NC(C(=O)O)c4cc(O)cc(O)c4-c4cc3ccc4O)C(O)c3ccc(c(Cl)c3)Oc3cc2cc(c3OC2OC(CO)C(O)C(O)C2OC2CC(C)(N)C(O)C(C)O2)Oc2ccc(cc2Cl)C1O (stereo not drawn) [Compound 10, N^leu --(1-oxo-10-n-decenyl)vancomycin]",4,4,4,4,32 µg/mL,8,1,2,2,4,-- (not active at 128 mcg/ml),-- (not active at 128 mcg/ml),-- (not active at 128 mcg/ml),-- (not active at 128 mcg/ml),-- (not active at 128 mcg/ml),-- (not active at 128 mcg/ml),-- (not active at 128 mcg/ml),-- (not active at 128 mcg/ml)
"CCCCCCCC(=O)NC1(C)CC(OC2C(Oc3c4cc5cc3Oc3ccc(cc3Cl)C(O)C(NC(=O)C(CC(C)C)N(C)C(=O)CCCCCCC)C(=O)NC(CC(N)=O)C(=O)NC5C(=O)NC3C(=O)NC(C(=O)NC(C(=O)O)c5cc(O)cc(O)c5-c5cc3ccc5O)C(O)c3ccc(c(Cl)c3)O4)OC(CO)C(O)C2O)OC(C)C1O (stereo not drawn) [Compound 5, N^van,N^leu --di(1-oxo-n-octyl)vancomycin]",32,32,32,32,-- (not active at 128 mcg/ml),64,32,32,32,32,-- (not active at 128 mcg/ml),-- (not active at 128 mcg/ml),-- (not active at 128 mcg/ml),-- (not active at 128 mcg/ml),-- (not active at 128 mcg/ml),-- (not active at 128 mcg/ml),-- (not active at 128 mcg/ml),-- (not active at 128 mcg/ml)
"CCCCCCCCCCCC(=O)N(C)C(CC(C)C)C(=O)NC1C(=O)NC(CC(N)=O)C(=O)NC2C(=O)NC3C(=O)NC(C(=O)NC(C(=O)O)c4cc(O)cc(O)c4-c4cc3ccc4O)C(O)c3ccc(c(Cl)c3)Oc3cc2cc(c3OC2OC(CO)C(O)C(O)C2OC2CC(C)(N)C(O)C(C)O2)Oc2ccc(cc2Cl)C1O (stereo not drawn) [Compound 13, N^leu --(1-oxo-n-dodecyl)vancomycin]",8,8,8,8,32 µg/mL,8,8,8,8,8,128 µg/mL,32 µg/mL,-- (not active at 128 mcg/ml),-- (not active at 128 mcg/ml),-- (not active at 128 mcg/ml),-- (not active at 128 mcg/ml),-- (not active at 128 mcg/ml),-- (not active at 128 mcg/ml)
"CCCCCCCC(=O)N(C)C(CC(C)C)C(=O)NC1C(=O)NC(CC(N)=O)C(=O)NC2C(=O)NC3C(=O)NC(C(=O)NC(C(=O)O)c4cc(O)cc(O)c4-c4cc3ccc4O)C(O)c3ccc(c(Cl)c3)Oc3cc2cc(c3OC2OC(CO)C(O)C(O)C2OC2CC(C)(N)C(O)C(C)O2)Oc2ccc(cc2Cl)C1O (stereo not drawn) [Compound 4, N^leu --(1-oxo-n-octyl)vancomycin]",8,8,8,8,32 µg/mL,16,4,2,8,16,-- (not active at 128 mcg/ml),-- (not active at 128 mcg/ml),-- (not active at 128 mcg/ml),-- (not active at 128 mcg/ml),-- (not active at 128 mcg/ml),-- (not active at 128 mcg/ml),-- (not active at 128 mcg/ml),-- (not active at 128 mcg/ml)
"C=CCCCCCCCCC(=O)NC1(C)CC(OC2C(Oc3c4cc5cc3Oc3ccc(cc3Cl)C(O)C(NC(=O)C(CC(C)C)N(C)C(=O)CCCCCCCCC=C)C(=O)NC(CC(N)=O)C(=O)NC5C(=O)NC3C(=O)NC(C(=O)NC(C(=O)O)c5cc(O)cc(O)c5-c5cc3ccc5O)C(O)c3ccc(c(Cl)c3)O4)OC(CO)C(O)C2O)OC(C)C1O (stereo not drawn) [Compound 11, N^van,N^leu --(1-oxo-10-n-decenyl)vancomycin]",8,8,16,8,64 µg/mL,16,2,4,8,16,32 µg/mL,32 µg/mL,128 µg/mL,128 µg/mL,64 µg/mL,128 µg/mL,128 µg/mL,128 µg/mL
"CCCCCCCCCC(=O)NC1(C)CC(OC2C(Oc3c4cc5cc3Oc3ccc(cc3Cl)C(O)C(NC(=O)C(CC(C)C)N(C)C(=O)CCCCCCCCC)C(=O)NC(CC(N)=O)C(=O)NC5C(=O)NC3C(=O)NC(C(=O)NC(C(=O)O)c5cc(O)cc(O)c5-c5cc3ccc5O)C(O)c3ccc(c(Cl)c3)O4)OC(CO)C(O)C2O)OC(C)C1O (stereo not drawn) [Compound 8, N^van,N^leu-di(1-oxo-n-decyl)vancomycin]",2,4,4,8,32 µg/mL,8,4,16,8,8,-- (not active at 128 mcg/ml),-- (not active at 128 mcg/ml),-- (not active at 128 mcg/ml),-- (not active at 128 mcg/ml),-- (not active at 128 mcg/ml),-- (not active at 128 mcg/ml),-- (not active at 128 mcg/ml),-- (not active at 128 mcg/ml)
